Reference: ChEMBL document CHEMBL1201862, “PubChem BioAssay data set” (2004)
Active and inactive are the calls of the source. Rule as the data show it: actives have a measured IC50 and inactives only a lower limit.

Target: Envelope glycoprotein gp160 (Human immunodeficiency virus 1, UniProt Q6QLK5)
Assay: cell-free HIV fusion peptide-binding blockers – biochemical, uHTS, fluorescence dequenching, […] (AID 1986)

Sequence of Envelope glycoprotein gp160 (Q6QLK5 whole entry, the tested form may be a part): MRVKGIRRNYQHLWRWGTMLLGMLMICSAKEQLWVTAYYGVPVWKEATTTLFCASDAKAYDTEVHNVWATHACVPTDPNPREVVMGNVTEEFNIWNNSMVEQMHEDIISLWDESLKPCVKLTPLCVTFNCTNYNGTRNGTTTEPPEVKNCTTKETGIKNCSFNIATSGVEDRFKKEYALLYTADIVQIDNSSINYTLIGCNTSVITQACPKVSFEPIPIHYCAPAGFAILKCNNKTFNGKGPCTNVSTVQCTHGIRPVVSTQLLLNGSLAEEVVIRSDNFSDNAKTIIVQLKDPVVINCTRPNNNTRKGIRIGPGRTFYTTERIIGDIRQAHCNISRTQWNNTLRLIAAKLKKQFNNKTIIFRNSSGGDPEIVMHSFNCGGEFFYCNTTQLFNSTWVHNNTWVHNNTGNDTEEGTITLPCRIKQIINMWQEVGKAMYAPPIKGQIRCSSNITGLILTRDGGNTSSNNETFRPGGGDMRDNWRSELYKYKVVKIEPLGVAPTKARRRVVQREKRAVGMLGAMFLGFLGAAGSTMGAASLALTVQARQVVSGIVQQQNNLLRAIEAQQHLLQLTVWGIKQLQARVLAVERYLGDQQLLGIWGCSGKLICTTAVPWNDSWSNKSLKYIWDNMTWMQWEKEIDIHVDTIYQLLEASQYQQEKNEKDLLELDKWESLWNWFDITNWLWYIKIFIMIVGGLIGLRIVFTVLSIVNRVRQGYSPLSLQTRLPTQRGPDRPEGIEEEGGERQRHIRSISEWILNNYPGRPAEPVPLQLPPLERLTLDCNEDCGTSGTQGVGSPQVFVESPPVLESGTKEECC

**Q.** O=C1NN(c2ccccc2)C(=O)/C1=C\c1cccc(OC(=O)c2cccs2)c1 was tested. Which IC50 did it give?
**A.** 33.9 µM (active)

**Q.** For CC1(c2ccccc2)CC(C)(C)N2C(=O)/C(=C3\SC(=S)NC3=O)c3cccc1c32 (centres undefined), which IC50 is on record?
**A.** 83.8 µM (active)

**Q.** For O=C(COc1ccc(Cl)cc1)Nc1cc(NC(=O)COc2ccc(Cl)cc2)cc(C(=O)O)c1, which IC50 is on record?
**A.** 26.4 µM (active)

**Q.** For Cc1cc(Cl)ccc1OC(C)C(=O)Nc1ccc(C(=O)Nc2ccccc2C(=O)O)cc1 (centres undefined), which IC50 is on record?
**A.** 13.1 µM (active)
